± gives the expanded uncertainty stated by the source.
Assay: xn = mol fraction of the nth substance listed
Conditions: 101 kPa, Liquid

CCCCCCOC(C)=O [hexyl ethanoate] + C1COCCO1
Conditions	mass density [kg/m3]	speed of sound [m/s]	viscosity [mPa·s]
298.15 K, x1 = 0.0546	1015 ± 1	1312 ± 11	1.143 ± 0.028
298.15 K, x1 = 0.1152	1000.7 ± 0.9	1292 ± 11	1.131 ± 0.028
298.15 K, x1 = 0.1825	985.9 ± 1	1280 ± 11	1.119 ± 0.027
298.15 K, x1 = 0.2572	970.6 ± 1	1268 ± 11	1.106 ± 0.027
298.15 K, x1 = 0.3416	954.6 ± 1.1	1256 ± 11	1.096 ± 0.027
298.15 K, x1 = 0.4094	942.8 ± 1.1	1248 ± 11	1.093 ± 0.027
298.15 K, x1 = 0.4773	931.9 ± 1.2	1240 ± 11	1.088 ± 0.027
298.15 K, x1 = 0.5836	916.5 ± 1.2	1236 ± 11	1.08 ± 0.026
298.15 K, x1 = 0.7044	900.8 ± 1.3	1236 ± 11	1.077 ± 0.026
298.15 K, x1 = 1	868.3 ± 1.5	1236 ± 11	1.071 ± 0.026
303.15 K, x1 = 0.0546	1009 ± 1	1300 ± 11	1.076 ± 0.026
303.15 K, x1 = 0.1152	994.8 ± 0.9	1280 ± 11	1.063 ± 0.026
303.15 K, x1 = 0.1825	979.9 ± 1	1268 ± 11	1.049 ± 0.026
303.15 K, x1 = 0.2572	964.6 ± 1	1256 ± 11	1.037 ± 0.025
303.15 K, x1 = 0.3416	948.8 ± 1.1	1244 ± 11	1.026 ± 0.025
303.15 K, x1 = 0.4094	937.1 ± 1.2	1236 ± 11	1.019 ± 0.025
303.15 K, x1 = 0.4773	926.4 ± 1.2	1228 ± 11	1.014 ± 0.025
303.15 K, x1 = 0.5836	911.1 ± 1.3	1224 ± 11	1.005 ± 0.025
303.15 K, x1 = 0.7044	895.7 ± 1.3	1224 ± 11	0.997 ± 0.025
303.15 K, x1 = 1	863.9 ± 1.5	1216 ± 11	0.982 ± 0.024
308.15 K, x1 = 0.0546	1003.4 ± 0.9	1288 ± 11	0.987 ± 0.024
308.15 K, x1 = 0.1152	988.9 ± 1	1268 ± 11	0.975 ± 0.024
308.15 K, x1 = 0.1825	974 ± 1	1256 ± 11	0.962 ± 0.024
308.15 K, x1 = 0.2572	958.8 ± 1.1	1244 ± 11	0.951 ± 0.024
308.15 K, x1 = 0.3416	943.2 ± 1.1	1232 ± 11	0.942 ± 0.024
308.15 K, x1 = 0.4094	931.7 ± 1.2	1224 ± 11	0.935 ± 0.024
308.15 K, x1 = 0.4773	921.1 ± 1.2	1216 ± 11	0.93 ± 0.023
308.15 K, x1 = 0.5836	906 ± 1.3	1212 ± 11	0.921 ± 0.023
308.15 K, x1 = 0.7044	890.8 ± 1.4	1212 ± 11	0.913 ± 0.023
308.15 K, x1 = 1	859.8 ± 1.5	1196 ± 11	0.898 ± 0.023
313.15 K, x1 = 0.0546	996.8 ± 0.9	1280 ± 11	0.935 ± 0.024
313.15 K, x1 = 0.1152	982.2 ± 1	1256 ± 11	0.924 ± 0.023
313.15 K, x1 = 0.1825	967.3 ± 1	1244 ± 11	0.912 ± 0.023
313.15 K, x1 = 0.2572	952.3 ± 1.1	1232 ± 11	0.9 ± 0.023
313.15 K, x1 = 0.3416	937 ± 1.2	1216 ± 11	0.889 ± 0.023
313.15 K, x1 = 0.4094	925.7 ± 1.2	1208 ± 11	0.88 ± 0.023
313.15 K, x1 = 0.4773	915.2 ± 1.2	1204 ± 11	0.874 ± 0.022
313.15 K, x1 = 0.5836	900.3 ± 1.3	1200 ± 11	0.864 ± 0.022
313.15 K, x1 = 0.7044	885.2 ± 1.4	1200 ± 11	0.855 ± 0.022
313.15 K, x1 = 1	855 ± 1.5	1176 ± 10	0.836 ± 0.022

CCCCCCOC(C)=O [hexyl ethanoate] + C=COCCCC
x1 = 1
Conditions	mass density [kg/m3]	speed of sound [m/s]	viscosity [mPa·s]
298.15 K	868.3 ± 1.5	1236 ± 11	1.071 ± 0.026
303.15 K	863.9 ± 1.5	1216 ± 11	0.982 ± 0.024
308.15 K	859.8 ± 1.5	1196 ± 11	0.899 ± 0.023
313.15 K	855 ± 1.5	1176 ± 10	0.836 ± 0.022
